Molecular target: T1, LPAR1 (Homo sapiens, UniProt Q92633)
T1 construct: host or cells: U2OS
Assay: LPAR1 FLIPR Assay
Type: cell-based
Settings: U2OS cells stably expressing LPAR1, LPA (EC80), Calcium 6 FLIPR dye; for Emax: read-out: Maximum Inhibition
Protocol: U2OS cells stably expressing LPAR1 (Life Technologies #K1519A) were plated at 12000 cells/well in growth medium (McCoy's 5A medium(Life Technologies 16600-082)) with 10% dFBS (Life Technologies 26400-036), 0.1 mM non-essential amino acids, 25 mM HEPES, 1 mM sodium pyruvate, 1% penicillin/streptomycin, 50 μg/mL hygromycin, and 100 μg/mL Geneticin® in black-walled, clear-bottom 384-well plates (Corning #3683) and incubated in humidified 5% CO2 at 37° C. overnight. On the day of the assay, medium was removed and 30 μL of 5% Calcium 6 FLIPR dye in assay buffer-HBSS (Life Technologies #14025) containing 20 mM HEPES (Life Technologies #15630-080) was added to the cells. Cells were incubated at 37° C. in the dark for 2 hours. Compounds were 3-fold serial diluted from 10 mM for 11-points using dimethyl sulfoxide. 1 μL of compound in DMSO was diluted in 82.3 μL assay buffer immediately before the assay. Using a FLIPR® TETRA® system, 15 μL of the (4×) compound solutions were first added to the cells, then 15 μL of LPA (EC80) diluted in of assay buffer supplemented with 0.1% BSA was added 3 minutes later to activate the receptor. Changes in fluorescence were measured at wavelengths of 515-575 nm over the course of the experimental run. IC50 values were calculated from curve fits of the ratio data using a four-parameter logistic Hill equation (Assay Explorer 3.3 Client).

T1 sequence (Q92633 whole entry): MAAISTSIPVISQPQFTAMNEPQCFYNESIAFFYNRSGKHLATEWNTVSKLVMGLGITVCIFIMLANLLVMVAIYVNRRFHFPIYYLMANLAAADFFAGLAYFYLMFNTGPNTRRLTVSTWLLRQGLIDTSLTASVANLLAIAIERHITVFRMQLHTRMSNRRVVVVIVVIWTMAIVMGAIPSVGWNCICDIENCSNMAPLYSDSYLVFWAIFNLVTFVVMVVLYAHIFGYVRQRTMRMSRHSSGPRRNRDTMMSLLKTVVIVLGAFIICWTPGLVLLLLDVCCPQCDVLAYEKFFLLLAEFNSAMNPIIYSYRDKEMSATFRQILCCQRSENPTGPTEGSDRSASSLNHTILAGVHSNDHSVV

Row | Compound | IC50 | Emax | Maximum Inhibition
1 | COc1cc(C(=O)N(CCCCC(=O)O)CCCc2ccccc2)cc(OC)c1OCCO [Example 88, 5-{[4-(2-hydroxyethoxy)-3,5-dimethoxybenzoyl](3-phenylpropyl)amino}pentanoic Acid] | 293 nM | 91% | –
2 | 5-[(3-methoxy-4-methylbenzoyl)(3-phenylpropyl)amino]pentanoic Acid [Example 28] | 398 nM | – | 72%
3 | COc1cc(OC)cc(C(=O)N(CCCc2ccccc2)CCOCC(=O)O)c1 [Example 15, {2-[(3,5-dimethoxybenzoyl)(3-phenylpropyl)amino]ethoxy}acetic Acid] | 290 nM | 59% | –
4 | COc1cc(C(=O)N(CCCc2ccccc2)CC(=O)N[C@@H](Cc2ccccc2)C(=O)O)cc(OC)c1C [Example 46, N-(3,5-dimethoxy-4-methylbenzoyl)-N-(3-phenylpropyl)glycylphenylalanine] | 128 nM | 66% | –
5 | O=C(O)CCCCN(CCCc1ccccc1)C(=O)C1(c2ccncc2)CC1 [Example 64, 5-{(3-phenylpropyl)[1-(pyridin-4-yl)cyclopropane-1-carbonyl]amino}pentanoic Acid] | 1230 nM | 54% | –
6 | O=C(O)CCCCN(CCCc1ccccc1)C(=O)c1cc(Cl)cc(Cl)c1 [Example 12, 5-[(3,5-dichlorobenzoyl)(3-phenylpropyl)amino]pentanoic Acid] | 3240 nM | 55% | –
7 | COc1cc(C(=O)N(CCCc2ccccc2)CCCC(C)P(=O)(O)O)cc(OC)c1C (stereo not drawn) [Example 72, {5-[(3,5-dimethoxy-4-methylbenzoyl)(3-phenylpropyl)amino]pentan-2-yl}phosphonic Acid] | 26 nM | 99% | –
8 | COc1ccc([C@@H](OC)C(=O)N(CCCCC(=O)O)CCCc2ccccc2)cc1 [Example 66, 5-{[(2R)-2-methoxy-2-(4-methoxyphenyl)acetyl](3-phenylpropyl)amino}pentanoic Acid] | 312 nM | 71% | –
9 | CCOc1cc(C(=O)N(CCCCC(=O)O)CCCc2ccccc2)cc(OCC)c1OCC [Example 21, 5-[(3-phenylpropyl)(3,4,5-triethoxybenzoyl)amino]pentanoic Acid] | 224 nM | 82% | –
10 | COc1cc(C(=O)N(CCCc2ccccc2)CC(=O)NCC(=O)O)cc(OC)c1C [Example 51, N-(3,5-dimethoxy-4-methylbenzoyl)-N-(3-phenylpropyl)glycylglycine] | 238 nM | 62% | –
11 | CCOc1cc(C(=O)N(CCCCC(=O)O)CCCc2ccccc2)ccn1 [Example 14, 5-[(2-ethoxypyridine-4-carbonyl)(3-phenylpropyl)amino]pentanoic Acid] | 942 nM | 41% | –
12 | O=C(O)CCCCN(CCCc1ccccc1)C(=O)c1cccc(OC(F)(F)F)c1 [Example 26, 5-{(3-phenylpropyl)[3-(trifluoromethoxy)benzoyl]amino}pentanoic Acid] | > 30000 nM | 50% | –
13 | COc1cc(C(=O)N(CCCCC(=O)O)CCCc2ccccc2)cc2ccoc12 [Example 24, 5-[(7-methoxy-1-benzofuran-5-carbonyl)(3-phenylpropyl)amino]pentanoic Acid] | 481 nM | 58% | –
14 | COc1cc(C(=O)N(CCCCC(=O)O)CCCc2ccc(C)cc2)cc(OC)c1C [Example 42, 5-{(3,5-dimethoxy-4-methylbenzoyl)[3-(4-methylphenyl)propyl]amino}pentanoic Acid] | 236 nM | 90% | –
15 | COc1cc(C(=O)N(CCCCP(=O)(O)O)CCCc2ccccc2)cc(OC)c1C [Example 71, {4-[(3,5-dimethoxy-4-methylbenzoyl)(3-phenylpropyl)amino]butyl}phosphonic Acid] | 12 nM | 91% | –
16 | O=C(O)CCCCN(CCCc1ccccc1)C(=O)C1(c2ccc3c(c2)OCO3)CC1 [Example 27, 5-{[1-(2H-1,3-benzodioxol-5-yl)cyclopropane-1-carbonyl](3-phenylpropyl)amino}pentanoic Acid] | 1060 nM | 65% | –

Further lines, results first:

Row | IC50 | Emax | Maximum Inhibition | Compound
17 | 235 nM | 57% | – | COc1cc(C(=O)N(CCCCC(=O)O)CCCc2ccc(C)o2)cc(OC)c1C(F)(F)F [Example 177, 5-{[3,5-dimethoxy-4-(trifluoromethyl)benzoyl][3-(5-methylfuran-2-yl)propyl]amino}pentanoic Acid]
18 | 1460 nM | 63% | – | Cc1cc(C(=O)N(CCCCC(=O)O)CCCc2ccccc2)c2c(C)noc2n1 [Example 172, 5-[(3,6-dimethyl[1,2]oxazolo[5,4-b]pyridine-4-carbonyl)(3-phenylpropyl)amino]pentanoic Acid]
19 | 302 nM | – | 85% | COc1ccc(C2(C(=O)N(CCCCC(=O)O)CCCc3ccccc3)CC(OC)C2)cc1 (stereo not drawn) [Example 159, 5-{[trans-3-methoxy-1-(4-methoxyphenyl)cyclobutane-1-carbonyl](3-phenylpropyl)amino}pentanoic Acid]
20 | 237 nM | 76% | – | COc1cc(C(=O)N(CCCc2ccccc2)C(C)CCCC(=O)O)cc(OC)c1C (stereo not drawn) [Example 164, 5-[(3,5-dimethoxy-4-methylbenzoyl)(3-phenylpropyl)amino]hexanoic Acid]
21 | 671 nM | 76% | – | COc1cc(C(=O)N(CCCc2ccc(F)cc2F)CCSCC(=O)O)cc(OC)c1C [Example 114, [(2-{[3-(2,4-difluorophenyl)propyl](3,5-dimethoxy-4-methylbenzoyl)amino}ethyl)sulfanyl]acetic Acid]
22 | 6950 nM | 59% | – | COc1cc(OC)cc(C(=O)N(CCCc2ccccc2)CCSCC(=O)O)c1 [Example 101, ({2-[(3,5-dimethoxybenzoyl)(3-phenylpropyl)amino]ethyl}sulfanyl)acetic Acid]
23 | 838 nM | 72% | – | CCOC1CC1(C(=O)N(CCCCC(=O)O)CCCc1ccccc1)c1ccc(OC)cc1 (stereo not drawn) [Example 149, 5-{[2-ethoxy-1-(4-methoxyphenyl)cyclopropane-1-carbonyl](3-phenylpropyl)amino}pentanoic Acid]
24 | 21 nM | 99% | – | COc1cc(C(=O)N(CCCc2ccccc2)CCOC(C)(C)C(=O)NS(C)(=O)=O)cc(OC)c1C [Example 156, N-[2-({1-[(methanesulfonyl)amino]-2-methyl-1-oxopropan-2-yl}oxy)ethyl]-3,5-dimethoxy-4-methyl-N-(3-phenylpropyl)benzamide]
25 | 225 nM | 69% | – | COc1cc(C(=O)N(CCCCC(=O)O)[C@@H](C)CCc2ccccc2)cc(OC)c1C [Example 154, 5-{(3,5-dimethoxy-4-methylbenzoyl) [(2S)-4-phenylbutan-2-yl]amino}pentanoic Acid]
26 | 244 nM | 57% | – | COc1cc(C(=O)N(CCCCC(=O)O)CCCc2ccccc2)nc(OC)n1 [Example 163, 5-[(2,6-dimethoxypyrimidine-4-carbonyl)(3-phenylpropyl)amino]pentanoic Acid]
27 | 3090 nM | 71% | – | Cn1cc(C(=O)N(CCCCC(=O)O)CCCc2ccccc2)c2ccccc2c1=O [Example 169, 5-[(2-methyl-1-oxo-1,2-dihydroisoquinoline-4-carbonyl)(3-phenylpropyl)amino]pentanoic Acid]
28 | 8020 nM | 63% | – | Cc1nc2c(C(=O)N(CCCCC(=O)O)CCCc3ccccc3)cccc2c(=O)[nH]1 [Example 160, 5-[(2-methyl-4-oxo-3,4-dihydroquinazoline-8-carbonyl)(3-phenylpropyl)amino]pentanoic Acid]
29 | > 10000 nM | 30% | – | COc1cc(C(=O)N(CCCc2ccccc2)CCOC(=O)NS(=O)(=O)c2ccc(F)cc2)cc(OC)c1C [Example 183, 2-[(3,5-dimethoxy-4-methylbenzoyl)(3-phenylpropyl)amino]ethyl (4-fluorobenzene-1-sulfonyl)carbamate]
30 | 503 nM | 86% | – | COc1cc(C(=O)N(C/C=C/CC(=O)O)CCCc2ccccc2)cc(OC)c1C [Example 121, (3E)-5-[(3,5-dimethoxy-4-methylbenzoyl)(3-phenylpropyl)amino]pent-3-enoic Acid]
31 | 247 nM | 78% | – | COc1cc(C(=O)N(CCCc2ccc(F)cc2)CCSCC(=O)O)cc(OC)c1C [Example 118, [(2-{(3,5-dimethoxy-4-methylbenzoyl)[3-(4-fluorophenyl)propyl]amino}ethyl)sulfanyl]acetic Acid]
32 | 143 nM | 89% | – | COc1cc(C(=O)N(CCCCC(=O)NS(=O)(=O)c2ccc(F)cc2)CCCc2ccccc2)cc(OC)c1C [Example 140, N-{5-[(4-fluorobenzene-1-sulfonyl)amino]-5-oxopentyl}-3,5-dimethoxy-4-methyl-N-(3-phenylpropyl)benzamide]
33 | 486 nM | 80% | – | COc1cc(C(=O)N(CCCc2ccccc2)C[C@H]2CCC(=O)O2)cc(OC)c1C [Example 181, 3,5-dimethoxy-4-methyl-N-{[(2R)-5-oxooxolan-2-yl]methyl}-N-(3-phenylpropyl)benzamide]

Source: patent US20190119200A1, “TERTIARY AMIDES AND METHOD OF USE” (AbbVie Inc., priority 2016, published 2019)
